Laboratory results from PMC3509320 (Journal of medicinal chemistry, 2012).

What was measured:
[1] = biological target: h5-HT4 (Homo sapiens, UniProt Q13639); assay: 5-HT4R intrinsic activity functional assay; conditions: h5-HT4, functional assay at CEREP
[2] = biological target: 5-HT4R (Rattus norvegicus, UniProt Q62758); assay: In vitro autoradiographic competition with [125I]1 on rat brain sections; format: binding
[3] = biological target: 5-HT4R (Mus musculus, UniProt P97288); assay: In vivo competition with [125I]1, ex vivo autoradiography of mouse brain
[4] = SPECT tracer ref 19; cited from earlier work

Chain of h5-HT4 (Q13639 whole entry): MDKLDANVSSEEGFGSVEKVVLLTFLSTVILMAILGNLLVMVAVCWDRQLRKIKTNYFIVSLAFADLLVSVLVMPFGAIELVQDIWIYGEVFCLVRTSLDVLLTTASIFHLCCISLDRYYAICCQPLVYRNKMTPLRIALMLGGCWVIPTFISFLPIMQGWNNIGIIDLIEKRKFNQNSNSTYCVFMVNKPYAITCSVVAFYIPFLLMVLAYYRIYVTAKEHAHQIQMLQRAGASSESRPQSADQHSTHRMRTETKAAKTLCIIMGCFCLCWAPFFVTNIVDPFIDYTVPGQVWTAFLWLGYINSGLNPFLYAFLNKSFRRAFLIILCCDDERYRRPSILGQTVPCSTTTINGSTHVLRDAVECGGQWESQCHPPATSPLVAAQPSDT
Chain of 5-HT4R (Rattus norvegicus, UniProt Q62758) (Q62758 whole entry): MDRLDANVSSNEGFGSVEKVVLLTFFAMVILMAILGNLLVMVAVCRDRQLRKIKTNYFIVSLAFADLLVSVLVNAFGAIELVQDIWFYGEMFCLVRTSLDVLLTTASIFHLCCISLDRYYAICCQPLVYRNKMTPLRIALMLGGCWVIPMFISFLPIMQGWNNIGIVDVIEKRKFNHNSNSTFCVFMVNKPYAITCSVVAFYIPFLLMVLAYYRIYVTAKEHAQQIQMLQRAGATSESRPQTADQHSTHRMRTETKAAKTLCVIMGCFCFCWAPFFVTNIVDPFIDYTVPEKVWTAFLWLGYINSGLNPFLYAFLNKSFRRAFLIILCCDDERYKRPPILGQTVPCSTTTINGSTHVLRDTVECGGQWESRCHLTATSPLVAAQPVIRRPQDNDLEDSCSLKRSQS
Chain of 5-HT4R (Mus musculus, UniProt P97288) (P97288 whole entry): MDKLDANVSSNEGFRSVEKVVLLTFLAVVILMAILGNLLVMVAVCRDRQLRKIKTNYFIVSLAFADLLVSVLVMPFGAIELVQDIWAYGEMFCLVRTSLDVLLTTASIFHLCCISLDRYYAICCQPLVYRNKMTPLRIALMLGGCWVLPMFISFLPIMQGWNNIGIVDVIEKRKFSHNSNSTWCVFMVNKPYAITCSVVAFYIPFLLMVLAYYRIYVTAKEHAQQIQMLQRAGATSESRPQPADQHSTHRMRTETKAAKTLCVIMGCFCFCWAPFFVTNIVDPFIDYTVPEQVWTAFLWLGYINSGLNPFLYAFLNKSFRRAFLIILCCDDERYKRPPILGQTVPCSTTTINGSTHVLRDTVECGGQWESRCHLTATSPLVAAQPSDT

**Q.** Which “efficacy (intrinsic activity)” value [1] does the source give for `CCCN1CCC(COc2nc3c(F)cccc3c3ncccc23)CC1` [Compound 4v, 7-Fluoro-5-(1-propylpiperidin-4-yl)methyloxybenzo[h]-1,6-naphthyridine] here?
**A.** full antagonists

**Q.** Which “efficacy (intrinsic activity)” value [1] does the source give for `CCCN1CCC(COc2nc3c(I)cccc3c3ccccc23)CC1` [Compound 11a, 4-Iodo-6-(1-propylpiperidin-4-yl)methyloxyphenanthridine] here?
**A.** full antagonists

**Q.** With `CCCN1CCC(COc2nc3c(I)cccc3c3ncccc23)CC1` [Compound 11b, 7-Iodo-5-(1-propylpiperidin-4-yl)methyloxybenzo[h]-1,6-naphthyridine] as the compound, how does the “efficacy (intrinsic activity)” value [1] read?
**A.** full antagonists

**Q.** Which “5-HT4R-specific [125I]1 radioactivity in autoradiograms” value ([2]; 10 pM of 11d with 100 pM [125I]1, rat brain sections) does the source give for `Fc1cccc2c1nc(OCC1CCN(CCCc3ccc(I)cc3)CC1)c1cccnc12` [Compound 11d, 7-Fluoro-5-{1-[3-(4-iodophenyl)propyl]piperidin-4-yl}methyloxybenzo[h]-1,6-naphthyridine] here?
**A.** decrease in the 5-HT4R-specific radioactivity

**Q.** What about the “5-HT4R-specific [125I]1 radioactivity in autoradiograms” value ([2]; 1 nM of 11d with 100 pM [125I]1, rat brain sections) of the same compound?
**A.** almost complete abolishment of the signal

**Q.** And the “efficacy (intrinsic activity)” value [1]?
**A.** full antagonists

**Q.** What about the “blood brain barrier crossing” value ([3]; i.v. 50 µg/kg) of the same compound?
**A.** able to cross the blood brain barrier

**Q.** What about the “specific binding of [125I]1 ex vivo” value ([3]; i.v. co-injection of 50 µg/kg 11d, compared to [125I]1 alone) of the same compound?
**A.** markedly reduced

**Q.** For `CCCCN1CCC(COC(=O)c2cc([123I])c(N)c3c2OCCO3)CC1` [[^123I]1, (1-butylpiperidin-4-yl)methyl-8-amino-7-iodo[^123I]-2,3-dihydrobenzo[b][1,4]dioxine-5-carboxylate], which brain penetration [4] is on record?
**A.** low brain penetration

**Q.** And the metabolism [4]?
**A.** rapid metabolism
